Measured values as given in patent US7528148B2, “Pyrazolo[3,4-B]pyridine compounds, and their use as phosphodiesterase inhibitors” (Glaxo Group Limited, priority 2002, dated 2009).

Target: T1, PDE4B (human recombinant) (Homo sapiens, UniProt Q07343)
T1 construct: made in house; host or cells: Saccharomyces cerevisiae strain GL62 (PDE-deficient)
Assay: PDE4B inhibition, radioactive SPA or IMAP fluorescence polarisation (FP) assay
Assay type: biochemical
Conditions: one reading or average of ca. 2-6 readings, accurate only to about ±0.5 log unit, read-out: PDE4B pIC50 (±about 0.5) (converted)
Excerpt: Human recombinant PDE4B, in particular the 2B splice variant thereof (HSPDE4B2B), is disclosed in WO 94/20079 and also M. M. McLaughlin et al., “A low Km, rolipram-sensitive, cAMP-specific phosphodiesterase from human brain: cloning and expression of cDNA, biochemical characterisation of recombinant protein, and tissue distribution of mRNA”, J. Biol. Chem., 1993, 268, 6470-6476. Human recombinant PDE4B was expressed in the PDE-deficient yeast Saccharomyces cerevisiae strain GL62. 100,000×g supernatant fractions of yeast cell lysates were used for PDE4B assays and inhibitor studies.
The ability of compounds to inhibit catalytic activity at PDE4B or 4D (human recombinant), PDE3 (from bovine aorta) or PDE5 (human recombinant) or PDE6 (from bovine retina) was determined by Scintillation Proximity Assay (SPA) in 96-well format. Test compounds (preferably as a solution in DMSO, e.g. about 2 microlitre (ul) volume of DMSO solution) were preincubated at ambient temperature (room temperature, e.g. 19-23° C.) in Wallac Isoplates (code 1450-514) with PDE enzyme in 50 mM Tris-HCl buffer pH 7.5, 8.3 mM MgCl2, 1.7 mM EGTA, 0.05% (w/v) bovine serum albumin for 10-30 minutes (usually 30 minutes). The enzyme concentration was adjusted so that no more than 20% hydrolysis of the substrate defined below occurred in control wells without compound, during the incubation. For PDE3, PDE4B and PDE4D assays, [5′,8-^3H]Adenosine 3′,5′-cyclic phosphate (Amersham Pharmacia Biotech, code TRK.559; or Amersham Biosciences UK Ltd, Pollards Wood, Chalfont St Giles, Buckinghamshire HP8 4SP, UK) was added to give 0.05 uCi per well and ˜10 nM final concentration. For the PDE5 and PDE6 assay [8-^3H]Guanosine 3′,5′-cyclic phosphate (Amersham Pharmacia Biotech, code TRK.392) was added to give 0.05 uCi per well and ˜36 nM final concentration. Plates, preferably containing approx. 100 ul volume of assay mixture, were mixed on an orbital shaker for 5 minutes and incubated at ambient temperature for 1 hour. Phosphodiesterase SPA beads (Amersham Pharmacia Biotech, code RPNQ 0150) were added (˜1 mg per well) to terminate the assay. Plates were sealed and shaken and allowed to stand at ambient temperature for 35 minutes to 1 hour (preferably 35 minutes) to allow the beads to settle. Bound radioactive product was measured using a WALLAC TRILUX 1450 Microbeta scintillation counter. For inhibition curves, 10 concentrations ([…]) of each compound were assayed. Curves were analysed using ActivityBase and XLfit (ID Businesss Solutions Limited, 2 Ocean Court, Surrey Research Park, Guildford, Surrey GU2 7QB, United Kindgom) Results were expressed as pIC50 values.
The ability of compounds to inhibit catalytic activity at PDE4B (human recombinant) or PDE4D (human recombinant) was determined by IMAP Fluorescence Polarisation (FP) assay (IAP Explorer kit, available from Molecular Devices Corporation, Sunnydale, Calif., USA; Molecular Devices code: R8062) in 384-well format. The IMAP FP assay is able to measure PDE activity in an homogenous, non-radioactive assay format. The FP assay uses the ability of immobilised trivalent metal cations, coated onto nanoparticles (tiny beads), to bind the phosphate group of Fl-AMP that is produced on the hydrolysis of fluorescein-labelled (Fl) cyclic adenosine mono-phosphate (Fl-cAMP) to the non-cyclic Fl-AMP form. […] Binding of Fl-AMP product to the beads (coated with the immobilised trivalent cations) slows the rotation of the bound Fl-AMP and leads to an increase in the fluorescence polarisation ratio of parallel to perpendicular light. Inhibition of the PDE reduces/inhibits this signal increase. […]

T1 sequence (Q07343 1-564 isoform Q07343-2): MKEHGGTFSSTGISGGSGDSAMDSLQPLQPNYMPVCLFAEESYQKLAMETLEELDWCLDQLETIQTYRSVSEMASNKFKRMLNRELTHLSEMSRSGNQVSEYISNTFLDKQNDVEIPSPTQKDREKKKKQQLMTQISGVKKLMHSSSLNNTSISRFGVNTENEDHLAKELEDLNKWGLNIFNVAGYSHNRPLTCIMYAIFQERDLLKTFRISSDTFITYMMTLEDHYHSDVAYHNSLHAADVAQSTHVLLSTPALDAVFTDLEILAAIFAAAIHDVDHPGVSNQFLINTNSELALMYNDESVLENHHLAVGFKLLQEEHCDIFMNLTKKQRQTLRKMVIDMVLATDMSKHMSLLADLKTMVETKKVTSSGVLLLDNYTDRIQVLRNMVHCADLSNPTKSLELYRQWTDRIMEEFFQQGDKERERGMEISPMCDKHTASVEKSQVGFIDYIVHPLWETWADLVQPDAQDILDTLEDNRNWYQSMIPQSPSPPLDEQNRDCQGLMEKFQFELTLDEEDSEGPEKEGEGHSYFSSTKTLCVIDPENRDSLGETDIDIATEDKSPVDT

Row | IC50 | Structure (SMILES)
1 | 31.6 nM | CCn1ncc2c(NC3CCOCC3)c(-c3nnc(CN4CCN(C)CC4)o3)cnc21 [Example 35, 1-Ethyl-5-{5-[(4-methylpiperazin-1-yl)methyl]-1,3,4-oxadiazol-2-yl}-N-(tetrahydro-2H-pyran-4-yl)-1H-pyrazolo[3,4-b]pyridin-4-amine]
2 | 0.794 to 31.6 nM | CCn1ncc2c(NC3CCOCC3)c(-c3nnc(C4CCOCC4)o3)cnc21 [Example 38, 1-Ethyl-N-(tetrahydro-2H-pyran-4-yl)-5-[5-(tetrahydro-2H-pyran-4-yl)-1,3,4-oxadiazol-2-yl]-1H-pyrazolo[3,4-b]pyridin-4-amine]

The remaining lines, values behind:

Row | Structure (SMILES) | IC50
3 | CCn1ncc2c(NC3CCOCC3)c(-c3nnc(C)o3)cnc21 [Example 14, 1-Ethyl-5-(5-methyl-1,3,4-oxadiazol-2-yl)-N-(tetrahydro-2H-pyran-4-yl)-1H-pyrazolo[3,4-b]pyridin-4-amine] | 25.1 nM
4 | CCn1ncc2c(NC3CCOCC3)c(-c3nnc(C(C)(C)C)o3)cnc21 [Example 17, 5-(S-Tert-butyl-1,3,4-oxadiazol-2-yl)-1-ethyl-N-(tetrahydro-2H-pyran-4-yl)-1H-pyrazolo[3,4-b]pyridin-4-amine] | 0.794 to 31.6 nM
5 | CCn1ncc2c(NC3CCOCC3)c(-c3nnc(CS(C)(=O)=O)o3)cnc21 [Example 23, 1-Ethyl-5-{5-[(methylsulfonyl)methyl]-1,3,4-oxadiazol-2-yl}-N-(tetrahydro-2H-pyran-4-yl)-1H-pyrazolo[3,4-b]pyridin-4-amine] | 7.94 nM
